A short description of series [1]: Solubility of the activity-assay substrate in water. Type of series: physicochemical. To be noted: required DMSO to be dissolved. How it is done:
A 10 mM stock of substrate was prepared by dissolving 5 mg of 4-methylumbelliferyl-N-acetyl-α-D-glucosaminide in 250 μL of 100% DMSO first. Naglu activity assay reaction buffer was then added to bring the volume up to […]. This 10 mM Substrate stock was further diluted 10-fold with reaction buffer to make the 1 mM substrate solution. Un-used 10 mM substrate stock was stored in −80° C. for up to one month. Samples and controls were pre-diluted in reaction buffer. 10 μL of each pre-diluted sample/control was applied in duplicate wells on a black clear bottom 96 well plate. 10 μL of reaction buffer was added to two wells of the plate and served as reaction buffer control. 75 μL of 1 mM substrate was added to each well that contained 10 μL of sample/control. The plate was sealed with plate sealer and wrapped with aluminum foil. The plate was placed in 37° C. Jitterbug and incubated with shaking setting at #1 for 1 hour. Prior to the completion of incubation, standards were prepared by diluting the stock (1000 μM) of 4-methlyumbelliferyl sodium salt down to 25 μM, 12.5 μM, 6.25 μM, 3.12 μM, 1.56 μM, 0.78 μM, 0 μM with water. At the completion of incubation, 85 μL of each of the seven standards was loaded on the plate in duplicate. […] The plate was measured for fluorescence at 360/460 (Excitation/Emission) using a Molecular Devices SpectraMax Plus M2 plate reader.

Series [2] has as its system MSP III-B derived fibroblasts. To be noted: in vitro, Malinowska et al. (2009); cited from earlier work.

Structures are written as SMILES.

As for `CC(=O)N[C@H]1[C@@H](Oc2ccc3c(C)cc(=O)oc3c2)O[C@H](CO)[C@@H](O)[C@@H]1O` [4-methylumbelliferyl-N-acetyl-α-D-glucosaminide], the solubility in water entry in series [1] is on record as “very low solubility in water”.

As to `O=c1c(-c2ccc(O)cc2)coc2cc(O)cc(O)c12` [gensteine], the “effect on GAG synthesis” value in series [2] is given as “inhibit GAG synthesis”.

Values taken from US9708590B2, “Crystal structure of human α-N-acetylglucosaminidase” (Shire Human Genetic Therapies, Inc., priority 2010, dated 2017).
